Laboratory results published in PubChem BioAssay AID1918996 (Molecular Pharmacology Branch, DTP, NCI, 2023).
pIC50: −log10 of the molar value.

Test system: 349418-098-R-PDC complex spheroid growth
Test: Anticancer human tumor 349418-098-R-PDC patient-derived lung adenocarcinoma cell line growth inhibition [AhR]
Details: for pIC50: curve of first compound; for viability, T/C: stronger effect = lower value; active means viability on the fitted dose curve at most 10% of control; inactive means the rest
How it was run: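 Complex tumor spheroids co-cultured with HUVEC and human MSC stroma; AhR antagonists tested in combination with standard-of-care and investigational agents. Top concentration at or near clinical Cmax (else 10 microM), half-log dilutions; growth expressed as percent test/control.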

[1] = second compound 0.1 µM, first compound 0.0316 µM
[2] = second compound 0.1 µM, first compound 0.1 µM
[3] = second compound 0.1 µM, first compound 0.316 µM
[4] = second compound 0.1 µM, first compound 1 µM
[5] = second compound 0.316 µM, first compound 0.0316 µM
[6] = second compound 0.316 µM, first compound 0.1 µM
[7] = second compound 0.316 µM, first compound 0.316 µM
[8] = second compound 0.316 µM, first compound 1 µM
[9] = second compound 1 µM, first compound 0.0316 µM
[10] = second compound 1 µM, first compound 0.1 µM
[11] = second compound 1 µM, first compound 0.316 µM
[12] = second compound 1 µM, first compound 1 µM
[13] = second compound 3.16 µM, first compound 0.0316 µM
[14] = second compound 3.16 µM, first compound 0.1 µM
[15] = second compound 3.16 µM, first compound 0.316 µM
[16] = second compound 3.16 µM, first compound 1 µM
[17] = second compound 10 µM, first compound 0.0316 µM
[18] = second compound 10 µM, first compound 0.1 µM
[19] = second compound 10 µM, first compound 0.316 µM
[20] = second compound 10 µM, first compound 1 µM
[21] = second compound 0.1 µM, first compound 0.00949 µM
[22] = second compound 0.1 µM, first compound 0.03 µM
[23] = second compound 0.1 µM, first compound 0.0949 µM
[24] = second compound 0.1 µM, first compound 0.3 µM
[25] = second compound 0.1 µM, first compound 0.949 µM
[26] = second compound 0.1 µM, first compound 3 µM
[27] = second compound 0.316 µM, first compound 0.00949 µM
[28] = second compound 0.316 µM, first compound 0.03 µM
[29] = second compound 0.316 µM, first compound 0.0949 µM
[30] = second compound 0.316 µM, first compound 0.3 µM
[31] = second compound 0.316 µM, first compound 0.949 µM
[32] = second compound 0.316 µM, first compound 3 µM
[33] = second compound 1 µM, first compound 0.00949 µM
[34] = second compound 1 µM, first compound 0.03 µM
[35] = second compound 1 µM, first compound 0.0949 µM
[36] = second compound 1 µM, first compound 0.3 µM
[37] = second compound 1 µM, first compound 0.949 µM
[38] = second compound 1 µM, first compound 3 µM
[39] = second compound 3.16 µM, first compound 0.00949 µM
[40] = second compound 3.16 µM, first compound 0.03 µM
[41] = second compound 3.16 µM, first compound 0.0949 µM
[42] = second compound 3.16 µM, first compound 0.3 µM
[43] = second compound 3.16 µM, first compound 0.949 µM
[44] = second compound 3.16 µM, first compound 3 µM
[45] = second compound 10 µM, first compound 0.00949 µM
[46] = second compound 10 µM, first compound 0.03 µM
[47] = second compound 10 µM, first compound 0.0949 µM
[48] = second compound 10 µM, first compound 0.3 µM
[49] = second compound 10 µM, first compound 0.949 µM
[50] = second compound 10 µM, first compound 3 µM
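Further: spheroids exposed to agents for seven days before luminescence viability read.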
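Wherever viability, T/C is given: spheroids also contain HUVEC endothelial cells and human MSC stroma.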

CC1COCCN1c1cc(-c2ccnn2C)c2ccnc(-c3ccn[nH]3)c2n1 (stereo not given) + CC(CO)NC(=O)c1cc(-c2ccc(Cl)cc2)nn(-c2cnn(C)c2)c1=O
7.28: pIC50 (second compound 10 µM)
7.08: pIC50 (second compound 1 µM)
7.16: pIC50 (second compound 0.316 µM)
7.10: pIC50 (second compound 0.1 µM)
7.17: pIC50 (second compound 3.16 µM)
inactive: viability, T/C (second compound 0.1 µM, first compound 0.00316 µM) 90.3% | viability, T/C (second compound 0.1 µM, first compound 0.01 µM) 99.2% | viability, T/C [1] 81.9% | viability, T/C [2] 41.9% | viability, T/C [3] 14.2% | viability, T/C [4] 10.3% | viability, T/C (second compound 0.316 µM, first compound 0.00316 µM) 87.4% | viability, T/C (second compound 0.316 µM, first compound 0.01 µM) 92.3% | viability, T/C [5] 89.1% | viability, T/C [6] 31.2% | viability, T/C [7] 15.8% | viability, T/C [8] 9.1% | viability, T/C (second compound 1 µM, first compound 0.00316 µM) 112% | viability, T/C (second compound 1 µM, first compound 0.01 µM) 128% | viability, T/C [9] 91.6% | viability, T/C [10] 42.2% | viability, T/C [11] 16.6% | viability, T/C [12] 10.9% | viability, T/C (second compound 3.16 µM, first compound 0.00316 µM) 67.7% | viability, T/C (second compound 3.16 µM, first compound 0.01 µM) 96.1% | viability, T/C [13] 85.3% | viability, T/C [14] 32.8% | viability, T/C [15] 15.8% | viability, T/C [16] 12% | viability, T/C (second compound 10 µM, first compound 0.00316 µM) 62.8% | viability, T/C (second compound 10 µM, first compound 0.01 µM) 94% | viability, T/C [17] 69.1% | viability, T/C [18] 25.2% | viability, T/C [19] 14.2% | viability, T/C [20] 10.1%

CC1COCCN1c1cc(C2(S(C)(=N)=O)CC2)nc(-c2ccnc3[nH]ccc23)n1 (stereo not given) + CC(CO)NC(=O)c1cc(-c2ccc(Cl)cc2)nn(-c2cnn(C)c2)c1=O
5.85: pIC50 (second compound 1 µM)
6.12: pIC50 (second compound 3.16 µM)
5.90: pIC50 (second compound 10 µM)
5.77: pIC50 (second compound 0.316 µM)
inactive: viability, T/C [1] 84.5% | viability, T/C [2] 71.8% | viability, T/C [3] 69.6% | viability, T/C [4] 65.7% | viability, T/C (second compound 0.1 µM, first compound 3.16 µM) 24.4% | viability, T/C (second compound 0.1 µM, first compound 10 µM) 12.5% | viability, T/C [5] 70% | viability, T/C [6] 80.7% | viability, T/C [7] 66.8% | viability, T/C [8] 73.2% | viability, T/C (second compound 0.316 µM, first compound 3.16 µM) 24.2% | viability, T/C (second compound 0.316 µM, first compound 10 µM) 10.4% | viability, T/C [9] 67.6% | viability, T/C [10] 89.1% | viability, T/C [11] 85.2% | viability, T/C [12] 59% | viability, T/C (second compound 1 µM, first compound 3.16 µM) 25.7% | viability, T/C (second compound 1 µM, first compound 10 µM) 12.5% | viability, T/C [13] 83.9% | viability, T/C [14] 55.9% | viability, T/C [15] 78.9% | viability, T/C [16] 42.4% | viability, T/C (second compound 3.16 µM, first compound 3.16 µM) 21.4% | viability, T/C (second compound 3.16 µM, first compound 10 µM) 13.4% | viability, T/C [17] 59.1% | viability, T/C [18] 56.9% | viability, T/C [19] 59.8% | viability, T/C [20] 57.7% | viability, T/C (second compound 10 µM, first compound 3.16 µM) 20.2% | viability, T/C (second compound 10 µM, first compound 10 µM) 11.7%
5.82: pIC50 (second compound 0.1 µM)

CCN(c1cc(-c2ccc(CN3CCOCC3)cc2)cc(C(=O)NCc2c(C)cc(C)[nH]c2=O)c1C)C1CCOCC1 + CC(CO)NC(=O)c1cc(-c2ccc(Cl)cc2)nn(-c2cnn(C)c2)c1=O
6.56: pIC50 (second compound 10 µM)
< 5.52: pIC50 (second compound 0.1 µM) | pIC50 (second compound 0.316 µM) | pIC50 (second compound 1 µM) | pIC50 (second compound 3.16 µM)
inactive: viability, T/C [21] 110% | viability, T/C [22] 110% | viability, T/C [23] 86.7% | viability, T/C [24] 79.4% | viability, T/C [25] 87.1% | viability, T/C [26] 74.7% | viability, T/C [27] 95% | viability, T/C [28] 118% | viability, T/C [29] 107% | viability, T/C [30] 89.2% | viability, T/C [31] 96% | viability, T/C [32] 76.1% | viability, T/C [33] 114% | viability, T/C [34] 123% | viability, T/C [35] 107% | viability, T/C [36] 76.2% | viability, T/C [37] 95.1% | viability, T/C [38] 59.7% | viability, T/C [39] 77.5% | viability, T/C [40] 63.4% | viability, T/C [41] 72.4% | viability, T/C [42] 67.9% | viability, T/C [43] 41.9% | viability, T/C [44] 70.4% | viability, T/C [45] 54.2% | viability, T/C [46] 79% | viability, T/C [47] 85.6% | viability, T/C [48] 40.5% | viability, T/C [49] 55.5% | viability, T/C [50] 47.9%

Nc1ncn(C2CC(O)C(CO)S2)c(=O)n1 (stereo not given) + CC(CO)NC(=O)c1cc(-c2ccc(Cl)cc2)nn(-c2cnn(C)c2)c1=O
7.70: pIC50 (second compound 10 µM)
7.60: pIC50 (second compound 3.16 µM)
7.49: pIC50 (second compound 0.316 µM)
7.34: pIC50 (second compound 1 µM)
7.06: pIC50 (second compound 0.1 µM)
inactive: viability, T/C (second compound 0.1 µM, first compound 0.000949 µM) 86.5% | viability, T/C (second compound 0.1 µM, first compound 0.003 µM) 85.5% | viability, T/C [21] 56.2% | viability, T/C [22] 62.2% | viability, T/C [23] 60.8% | viability, T/C [24] 31.9% | viability, T/C (second compound 0.316 µM, first compound 0.000949 µM) 72.6% | viability, T/C (second compound 0.316 µM, first compound 0.003 µM) 118% | viability, T/C [27] 68.8% | viability, T/C [28] 52.6% | viability, T/C [29] 47.8% | viability, T/C [30] 27.4% | viability, T/C (second compound 1 µM, first compound 0.000949 µM) 96.4% | viability, T/C (second compound 1 µM, first compound 0.003 µM) 68.9% | viability, T/C [33] 90.5% | viability, T/C [34] 53.7% | viability, T/C [35] 37.8% | viability, T/C [36] 21.4% | viability, T/C (second compound 3.16 µM, first compound 0.000949 µM) 86.1% | viability, T/C (second compound 3.16 µM, first compound 0.003 µM) 58% | viability, T/C [39] 66.5% | viability, T/C [40] 47% | viability, T/C [41] 39.9% | viability, T/C [42] 24.2% | viability, T/C (second compound 10 µM, first compound 0.000949 µM) 53.5% | viability, T/C (second compound 10 µM, first compound 0.003 µM) 71.8% | viability, T/C [45] 60% | viability, T/C [46] 43.1% | viability, T/C [47] 33.3% | viability, T/C [48] 24.5%

O=C(C=Cn1cnc(-c2cc(C(F)(F)F)cc(C(F)(F)F)c2)n1)NNc1cnccn1 + CC(CO)NC(=O)c1cc(-c2ccc(Cl)cc2)nn(-c2cnn(C)c2)c1=O
active: viability, T/C [25] 8.06% | viability, T/C [26] 6.68% | viability, T/C [31] 7.86% | viability, T/C [32] 5.14% | viability, T/C [37] 9.27% | viability, T/C [38] 5.79% | viability, T/C [42] 9.44% | viability, T/C [43] 7.82% | viability, T/C [44] 5.81% | viability, T/C [49] 7.38% | viability, T/C [50] 6.61%
7.77: pIC50 (second compound 1 µM)
inactive: viability, T/C [21] 44.2% | viability, T/C [22] 32.1% | viability, T/C [23] 18% | viability, T/C [24] 9.7% | viability, T/C [27] 42.7% | viability, T/C [28] 34.2% | viability, T/C [29] 22.2% | viability, T/C [30] 10.9% | viability, T/C [33] 62.4% | viability, T/C [34] 37.9% | viability, T/C [35] 20.1% | viability, T/C [36] 11.7% | viability, T/C [39] 48% | viability, T/C [40] 43.3% | viability, T/C [41] 18.6% | viability, T/C [45] 36.1% | viability, T/C [46] 34.6% | viability, T/C [47] 18.9% | viability, T/C [48] 8.82%
> 8.02: pIC50 (second compound 0.1 µM) | pIC50 (second compound 0.316 µM) | pIC50 (second compound 3.16 µM) | pIC50 (second compound 10 µM)
